Where no end group is shown, it is not given here.
Experiments:
[1] = tested on: human buccal epithelial cell line TR146; experiment: In vitro scratch wound closure assay on an epithelial monolayer; type: cell-based
Experimental: The human buccal epithelial cell line TR146 (Rupniak et al; J Natl Cancer Inst. 1985 October: 75(4):621-35) was kindly provided by Cancer Research UK. Cells were grown in Dulbecco's modified Eagle medium with 4.5 g/l glucose (Invitrogen), 10% FCS (HyClone) and 100 U/ml penicillin, […] streptomycin, and 250 ng/ml amphotericinB (Antibiotic antimyotic solution, Sigma,), at 37° C., 95% humidity and 5% CO2. Cells were maintained until near confluence and then briefly treated with 0.25% trypsin-EDTA 1× (Invitrogen) to detach them, counted in a hepacytometer and seeded into new flasks or multi-well plates at the required cell density of about 1.5×10^5 cells/well. Wound assays were performed as previously described ([…] et al., 1993, J Cell Sci. 106 (Pt 3):869-78). In brief, cells were grown in 12-well plates until confluence, and then were serum deprived for 24 hours in keratinocyte serum free medium (SFM (Invitrogen)). In each well a scratch was made in the cellular monolayer using a sterile tip. The wounded monolayer was washed with SFM to remove cellular debris, and the following conditions were applied: • (i) Whole saliva and salivary secretions applied in 30% (v/v) in SFM. As a negative control 30% (v/v) saliva buffer was used. • (ii) (ii) rhEGF (Invitrogen) as a positive control • (iii) rp-HPLC fractions containing salivary proteins; • (iv) synthetic peptides: the experiments with isolated proteins and synthetic peptides were performed in full SFM. The width of the wound area was determined microscopically immediately after wound creation and at approximately 16 hours after wounding. The relative closure was calculated by relating the closure to that of the negative control.

[2] = tested on: human buccal epithelial cell line TR146; experiment: In vitro wound closure with inhibitors of EGFR, p38 MAPK and ERK1/2; type: cell-based
Experimental: Wound assays were performed as previously described (Matthay et al., 1993, J Cell Sci. 106 (Pt 3):869-78). In brief, cells were grown in 12-well plates until confluence, and then were serum deprived for 24 hours in keratinocyte serum free medium (SFM (Invitrogen)). In each well a scratch was made in the cellular monolayer using a sterile tip. The wounded monolayer was washed with SFM to remove cellular debris, and the following conditions were applied: • (i) Whole saliva and salivary secretions applied in 30% (v/v) in SFM. As a negative control 30% (v/v) saliva buffer was used. • (ii) (ii) rhEGF (Invitrogen) as a positive control • (iii) rp-HPLC fractions containing salivary proteins; • (iv) synthetic peptides: the experiments with isolated proteins and synthetic peptides were performed in full SFM.
For inhibitor studies; directly after wounding cells were exposed to inhibitors of ERK1/2 (U0126, 5 μM, LC Laboratories), EGFR (AG1478, 1 μM, Calbiochem), and p38 MAPK (SB203580, 5 μM; LC Laboratories). Experiments were done in quadruplicate and analyzed using One-way ANOVA to determine significance with additional LSD post hoc test, P<0.05 was considered significant.

CC(C)C[C@H](NC(=O)[C@H](Cc1ccc(O)cc1)NC(=O)[C@H](CC(N)=O)NC(=O)[C@H](CO)NC(=O)[C@H](CCCNC(=N)N)NC(=O)[C@H](Cc1ccc(O)cc1)NC(=O)CNC(=O)[C@H](CCCNC(=N)N)NC(=O)[C@H](Cc1c[nH]cn1)NC(=O)[C@H](CO)NC(=O)[C@H](Cc1c[nH]cn1)NC(=O)[C@H](Cc1c[nH]cn1)NC(=O)[C@H](CCCCN)NC(=O)[C@H](CCC(=O)O)NC(=O)[C@H](Cc1c[nH]cn1)NC(=O)[C@H](Cc1ccccc1)NC(=O)[C@H](CCCCN)NC(=O)[C@H](CCCNC(=N)N)NC(=O)[C@H](CCCCN)NC(=O)[C@H](Cc1ccc(O)cc1)NC(=O)CNC(=O)[C@H](Cc1c[nH]cn1)NC(=O)[C@H](Cc1c[nH]cn1)NC(=O)[C@H](CCCNC(=N)N)NC(=O)[C@H](CCCCN)NC(=O)[C@H](C)NC(=O)[C@H](Cc1c[nH]cn1)NC(=O)[C@H](CO)NC(=O)[C@@H](N)CC(=O)O)C(=O)N[C@@H](Cc1ccc(O)cc1)C(=O)N[C@@H](CC(=O)O)C(=O)N[C@@H](CC(N)=O)C(=O)O [Histatin 3]
induction of wound closure (in words) ([1]; synthesized peptides in SFM, vs control): induce wound closure

C-HST1: cyclic peptide having the amino acid sequence according to SEQ. ID. NO. 4, Histatin 1 (DSHEKRHHGYRRKFHEKHHSHREFPFYGDYGSNYLYDN; ends and bridges not checked; also: cyclic, mode of cyclisation not given here)
relative wound closure ([1]; concentration of 1*10-3 μM, FIG. 4, 1 = no peptide added): 1.5

EGF: epidermal growth factor, rhEGF (Invitrogen), used as a positive control
induction of wound closure by EGF ([1]; 5 ng/ml, FIG. 1D): able to induce wound closure with rates comparable to that of parotid saliva
Wound closure rel. clos. ± SD ([1]; TR146 monolayer, approx. 16 hours after wounding, closure relative to negative control, peptides tested at 1-50 μg/ml): 1.41 ± 0.12
induced wound closure with EGFR blocked ([2]; AG1478 1 μM): abolished the effect
pathway dependence of induced wound closure ([2]; SB203580 5 μM (p38 MAPK), U0126 5 μM (ERK1/2), FIG. 2): p38^MAPK dependent

— patent US9090670B2, “Use of peptides for promoting wound healing” (priority 2008, dated 2015)
